Experimental data as given in patent publication US11147815B2, “Compositions and methods for treating diseases associated with uncontrolled inflammatory responses” (SF17 THERAPEUTICS, INC., priority 2018, dated 2021).

Experiments:
THP-1 cells = experiment: Cell count in the THP-1 screening assay; type: cell-based, human; details: 10 µM compound, IFN-γ stimulation, normalized to control
Experimental: (§1) A library of small molecule compounds comprising an E2-RING domain or a RING-RING domain was screen for TRIM8 inhibition in a cell-based assay. 20,000 THP-1 cells (a human myeloid cell line which imitates human monocyte cell inflammatory behavior and responds to IFN-γ stimulation by expressing […] CXCL9, CXCL10 and CXCL11) were incubated with […] of each compound (dissolved in DMSO) for 4 hours, then stimulated with 200 U (units) of human IFN-γ. The effect of the stimulation as measured by changes in accumulation levels of the cytokines CXCL9, CXCL10 and CXCL11 in extracellular fluid was determined by flow cytometer after 12 hours and compared to control (IFN-γ stimulation with no compound).

TRIM8 = molecular target: T1, TRIM8 (Homo sapiens, UniProt Q9BZR9); experiment: Cell-based screen for TRIM8 inhibition: CXCL9, CXCL10 and CXCL11 accumulation in IFN-γ-stimulated THP-1 cells; details: for Normalized Average of IP-10/CXCL10 / Normalized Average of MIG/CXCL9 / Normalized Average of I-TAC/CXCL11 / Effect on inflammatory response (CXCL9, CXCL10, CXCL11 after IFN-γ): THP-1 cells; for Normalized Average of IP-10/CXCL10 / Normalized Average of MIG/CXCL9 / Normalized Average of I-TAC/CXCL11: 10 µM compound 4 hours, then 200 U human IFN-γ, 12 hours, flow cytometer; for Normalized Average of IP-10/CXCL10 / Normalized Average of MIG/CXCL9: degree of change from control (<1 inhibition, >1 enhancement), triplicate; for Normalized Average of I-TAC/CXCL11: degree of change from control, high background in read-out; for Effect on inflammatory response (CXCL9, CXCL10, CXCL11 after IFN-γ) / TRIM8 inhibitor or enhancer activity found on testing: summary in words; for TRIM8 inhibitor or enhancer activity found on testing: Example 4
T1 construct: 20,000 THP-1 cells; endogenous in cells; host or cells: THP-1
T1 sequence (Q9BZR9 1-551): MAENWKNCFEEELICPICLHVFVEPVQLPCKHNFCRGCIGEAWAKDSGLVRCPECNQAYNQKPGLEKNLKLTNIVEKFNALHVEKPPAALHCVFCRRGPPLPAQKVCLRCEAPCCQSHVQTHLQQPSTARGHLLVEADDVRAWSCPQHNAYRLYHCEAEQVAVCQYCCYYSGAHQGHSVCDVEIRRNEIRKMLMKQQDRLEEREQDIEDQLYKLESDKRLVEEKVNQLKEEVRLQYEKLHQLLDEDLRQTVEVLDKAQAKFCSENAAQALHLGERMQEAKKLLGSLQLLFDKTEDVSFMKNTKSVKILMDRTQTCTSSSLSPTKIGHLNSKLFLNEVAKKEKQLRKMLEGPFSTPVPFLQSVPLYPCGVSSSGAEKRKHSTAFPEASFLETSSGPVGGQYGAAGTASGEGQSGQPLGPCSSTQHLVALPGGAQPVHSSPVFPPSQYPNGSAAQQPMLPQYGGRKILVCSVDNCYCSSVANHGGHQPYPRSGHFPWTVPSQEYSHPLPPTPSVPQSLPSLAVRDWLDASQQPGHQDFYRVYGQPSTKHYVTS
Experimental: as §1
Each compound is identified by its ChemDiv catalog number.
Values in Table 1 are reported as degree of change from the control state. Values less than 1 indicate inhibition of cytokine response, and values greater than 1 indicate enhancement of cytokine response. Smaller values indicate a higher degree of inhibition. Values closer to zero indicate profound inhibition of cytokine response, and thus significant suppression of inflammatory responses conferred via inhibition of TRIM8 by the tested compounds. CXCL11 values are higher due to a high background in their read-out (relatively high CXCL11 values indicate […]). Standard errors reflect the degree of variation seen in the triplicate tests for each compound.

For COc1ccc(CN2C(=O)NC(=O)/C(=C\c3cccc4ccccc34)C2=O)cc1 [Compound 17, (5E)-1-[(4-methoxyphenyl)methyl]-5-[(naphthalen-1-yl)methylidene]-1,3-diazinane-2,4,6-trione], the “Average Normalized Cell Count” value (THP-1 cells) was 1.435, the “Normalized Average of IP-10/CXCL10” value (TRIM8) was 3.640 and the “Normalized Average of MIG/CXCL9” value (TRIM8) was 2.545. The “Normalized Average of I-TAC/CXCL11” value (TRIM8) was 4.410, the “Effect on inflammatory response (CXCL9, CXCL10, CXCL11 after IFN-γ)” value (shortened to “Effect on inflammatory response”) (TRIM8) was “significant enhancement of inflammatory response” and the “TRIM8 inhibitor or enhancer activity found on testing” value (TRIM8) was “potent TRIM8 enhancer”.
COc1ccc(-c2n[nH]c3c2C(c2ccccc2)C2=C(CC(C)(C)CC2=O)N3)cc1 (stereo not drawn) [Compound 76, 3-(4-methoxyphenyl)-7,7-dimethyl-4-phenyl-1H,4H,5H,6H,7H,8H,9H-pyrazolo[3,4-b]quinolin-5-one] was tested, and the “Average Normalized Cell Count” value (THP-1 cells) was 1.196, the “Normalized Average of IP-10/CXCL10” value (TRIM8) was 0.352 and the “Normalized Average of MIG/CXCL9” value (TRIM8) was 0.085. The “Normalized Average of I-TAC/CXCL11” value (TRIM8) was “<LLOD”, the “Effect on inflammatory response” value (TRIM8) was “significant inhibition of inflammatory response” and the “TRIM8 inhibitor or enhancer activity found on testing” value (TRIM8) was “powerful TRIM8 inhibitor”.
With COc1ccc(N2CCN(C(=O)c3cc4ccc5cccnc5c4[nH]3)CC2)cc1 [Compound 81, 1-(4-methoxyphenyl)-4-{1H-pyrrolo[3,2-h]quinoline-2-carbonyl}piperazine] the “Average Normalized Cell Count” value (THP-1 cells) was 1.070, the “Normalized Average of IP-10/CXCL10” value (TRIM8) was 0.334 and the “Normalized Average of MIG/CXCL9” value (TRIM8) was 0.138. For the same compound, the “Normalized Average of I-TAC/CXCL11” value (TRIM8) was 0.617, the “Effect on inflammatory response” value (TRIM8) was “significant inhibition of inflammatory response” and the “TRIM8 inhibitor or enhancer activity found on testing” value (TRIM8) was “strong inhibitor of TRIM8”.
In the case of COc1ccc(Sc2ccc(=O)n(-c3ccc(C(=O)NCCCc4ccccc4)cc3)n2)cc1 [Compound 88, 4-{3-[(4-methoxyphenyl)sulfanyl]-6-oxo-1,6-dihydropyridazin-1-yl}-N-(3-phenylpropyl)benzamide], the “Average Normalized Cell Count” value (THP-1 cells) is reported as 0.837, the “Normalized Average of IP-10/CXCL10” value (TRIM8) is reported as 0.127 and the “Normalized Average of MIG/CXCL9” value (TRIM8) is reported as 0.019. For the same compound, the “Normalized Average of I-TAC/CXCL11” value (TRIM8) was 0.744, the “Effect on inflammatory response” value (TRIM8) was “significant inhibition of inflammatory response” and the “TRIM8 inhibitor or enhancer activity found on testing” value (TRIM8) was “highly potent TRIM8 inhibitor”.
O=C(NCCCc1ccccc1)c1n[nH]c2c1CN(C(=O)c1cc(F)ccc1F)CC2 [Compound 120, 5-(2,5-difluorobenzoyl)-N-(3-phenylpropyl)-1H,4H,5H,6H,7H-pyrazolo[4,3-c]pyridine-3-carboxamide] was tested, and the “Average Normalized Cell Count” value (THP-1 cells) was 0.960, the “Normalized Average of IP-10/CXCL10” value (TRIM8) was 0.468 and the “Normalized Average of MIG/CXCL9” value (TRIM8) was 0.188. For the same compound, the “Normalized Average of I-TAC/CXCL11” value (TRIM8) was 0.426, the “Effect on inflammatory response” value (TRIM8) was “significant inhibition of inflammatory response” and the “TRIM8 inhibitor or enhancer activity found on testing” value (TRIM8) was “TRIM8 inhibitor”.
With CCc1cccc2c(C(CC(=O)N3CCN(c4ccc([N+](=O)[O-])cc4)CC3)c3cccc4c3OCO4)c[nH]c12 (stereo not drawn) [Compound 130, 3-(2H-1,3-benzodioxol-4-yl)-3-(7-ethyl-1H-indol-3-yl)-1-[4-(4-nitrophenyl)piperazin-1-yl]propan-1-one] the “Average Normalized Cell Count” value (THP-1 cells) was 1.135, the “Normalized Average of IP-10/CXCL10” value (TRIM8) was 0.794 and the “Normalized Average of MIG/CXCL9” value (TRIM8) was 7.574. The “Normalized Average of I-TAC/CXCL11” value (TRIM8) was 0.806, the “Effect on inflammatory response” value (TRIM8) was “significant enhancement of inflammatory response” and the “TRIM8 inhibitor or enhancer activity found on testing” value (TRIM8) was “potent TRIM8 enhancer”.
